What is called MBC is the lowest tested concentration that kills the bacteria rather than only halting them. A lower MBC goes with greater bactericidal potency.

The test system of one data set is E. coli. The data set is described as follows: Agar well diffusion assay. It is filed as cell-based. To be noted: result in words. The procedure: (§1) The agar well diffusion assay was first done to evaluate the antimicrobial activities of the different target compounds (4a–j) against gram-positive bacteria, gram-negative bacteria, and fungi (Table 1A). […] First, the antibacterial activities were tested against S. aureus ATCC 6538, Acientobacter (A. baumanii) ATCC 19606, S. typhi, E. coli, and P. aeruginosa as examples of the most common gram-positive and gram-negative bacteria, in comparison to vancomycin and ceftriaxone as two reference standards. In addition, the antifungal activities were screened against C. albicans, in comparison to amphotericin as a reference standard. […] The antibacterial activities of some tested compounds (4a, 4b, 4h, and 4e) against gram-positive and gram-negative bacteria by agar well diffusion assay are represented in the supplementary data (Figure SI1).
(§2) A modification of the agar well diffusion method[55] was done to detect the antimicrobial activities of different compounds (4a–j) against gram-positive bacteria, gram-negative bacteria, and fungi. The work was carried out at the Microbiology Department Faculty of Medicine for Girls Al-Azhar University. By visual comparison to 0.5 McFarland turbidity standards, a suspension of each bacterial strain was prepared. The zones of inhibition were measured in cm.

Data set [1] deals with Acientobacter (A. baumanii) ATCC 19606. The data set is described as follows: Agar well diffusion assay. To be noted: result in words. It is filed as cell-based. The procedure: as §1, §2
Background: A growth-free zone around the sample is the usual read-out of agar diffusion tests.

Data set [2] has as its system S. typhi. The data set is described as follows: Minimal bactericidal concentration (MBC). It is filed as cell-based. To be noted: Salmonella enterica.
The next data set concerns NFKB2. It is filed as in vivo, rats. To be noted: Mean ± SE. The procedure: Rats were divided randomly into equal fifteen groups, each containing 9 rats as follows: • Group 1: Rats were kept on standard laboratory chow and water ad libitum to serve as a control. • Group 2: Rats have injected IP with sterile distilled water (4ml/kg) daily for one week to serve as a control. • Group 3: Rats have injected IP with DEMSO (dimethyl sulfoxide) (4 ml/kg) daily for one week to serve as a control. • Group 4: Rats have injected IP with 4h (1.9 mg/kg) daily for one week. • Group 5: Rats have injected IP with 4h (3.8 mg/kg) daily for one week. • Group 6: Rats have injected IP with 4i (1.9 mg/kg) daily for one week. • Group 7: Rats have injected IP with 4i (3.8 mg/kg) daily for one week. • Group 8: Rats were infected by a single IM injection of S. aureus strain [1.0 ml) 1 × 10^7) colony-forming units]. • Group 9: Rats have injected IP with 4h (1.9 mg/kg) daily for one week on the 7th day after induction of infection by a single IM injection of S. aureus strain [1.0 ml (1 × 10^7) colony-forming units. • Group 10: Rats have injected IP with 4h (3.8 mg/kg) daily for one week on the 7th day after induction of infection by a single IM injection of S. aureus strain [1.0 ml (1 × 10^7) colony-forming units]. • Group 11: Rats were infected by a single IM injection of S. typhi strain [1.0 ml (1 × 10^7) colony forming units). • Group 12: Rats have injected IP with 4h (1.9 mg/kg) daily for one week. on the 7th day after induction of infection by a single IM injection of S. typhi strain [1.0 ml (1 × 10^7) colony-forming units]. • Group 13: Rats have injected IP with 4h (3.8 mg/kg) daily for one week on the 7th day after infection by a single IM injection of S. typhi strain [1.0 ml (1 × 10^7) colony-forming units]. • Group 14: Rats have injected IP with 4i (1.9 mg/kg) daily for one week. on the 7th day after induction of infection by a single IM injection of S. typhi strain [1.0 ml (1 × 10^7) colony-forming units]. • Group 15: Rats have injected IP with 4i (3.8 mg/kg) daily for one week. on the 7th day after induction of infection by a single IM injection of Salmonella strain [1.0 ml (1 × 10^7) colony-forming units].
Immunohistochemistry (IHC) was performed on paraffin sections and mounted on positively charged slides to detect caspase-3 as an indicator for apoptosis and nuclear factor kappa-light-chain-enhancer of activated B cells (NFKB2) for inflammation by using the avidin-biotin-peroxidase complex (ABC) method. The exact methodology was carried out as previously described in detail.
Caspase-3 and NFKB2 immunostaining were measured as area % in a standard measuring frame in representative five fields for each subject (liver and kidneys) in all groups using 100x magnification via light microscopy transferred to the screen. […]

Data set [3] deals with S. typhi. The data set is described as follows: Biochemical analysis in S. typhi infected rats. It is filed as in vivo. As to the method:
The compounds 4h and 4j were dissolved in DMSO (dimethyl sulfoxide) then further dilutions were made by using sterile distilled water. The doses of both candidates were calculated according to the method given by Paget and Barnes[60]. Sterile distilled water, DEMSO, and investigated compounds (4h (1.9 and 3.8 mg/kg) and 4j (1.9 and 3.8 mg/kg)) were injected in a volume of 4 ml/kg[61]. The experiment lasts two weeks, the 1st week for induction of infection in the infected groups and the 2nd week for the administration of the compounds in all groups. […]
ALT and AST were determined[66] using commercial kits obtained from Diamond Diagnostics, Egypt.
Serum urea was determined by using the modified Berthelot–Searcy method. Serum creatinine activity was also assessed by using the application of Jaffe’s reaction.
Serum levels of the pro-inflammatory cytokine, TNF-α, were determined by the quantitative enzyme immunoassay (EIA) kit purchased from R&D Systems (USA) according to the method of Howard and Harada[69], while that of anti-inflammatory cytokine IL-10 was according to Croft et al.. […]

In a further data set the test system is P. aeruginosa. The data set is described as follows: Agar well diffusion assay. To be noted: result in words. It is filed as cell-based. The procedure: as §1, §2
In data set [4] the test system is S. typhi. The data set is described as follows: Agar well diffusion assay. It is filed as cell-based. To be noted: result in words. As to the method: as §1, §2
The next data set deals with S. aureus ATCC 6538. The data set is described as follows: Agar well diffusion assay. It is filed as cell-based. To be noted: result in words. The procedure: as §1, §2
A further data set concerns Aciento sensitive. Nature of the data set: Minimal bactericidal concentration (MBC). It is filed as cell-based, A. baumanii. To be noted: Aciento sensitive. The procedure:
After determining the MIC for the target compounds, the minimal bactericidal concentration (MBC) for each compound that is required to kill each one of the above-mentioned microorganisms was assessed.

The mark [5] stands for this setting: first dose (1.9 mg/kg IP daily for one week).
[6] abbreviates: second dose (3.8 mg/kg IP daily for one week).

Converted amounts (≈) assume the structure as drawn. Where two headings read alike, the source gives them in different places.

Turning to `COc1ccc(C(=O)NN=Cc2ccc3ccccc3n2)cc1OC` [Compound 4i, N'-(quinolin-2-ylmethylene)-3,4-dimethoxybenzohydrazide], the figures for the “zones of inhibition (inhibitory activity)” value (with E. coli; in data set [1]) were “superior inhibitory activity” and “most inhibitory activity”, respectively. Besides, the MBC with S. typhi [2] was 186 µM (≈ 62.5 µg/mL). Moreover, the “NFKB2, Kidney” value is reported as 28.693 ± 0.4494 area % with NFKB2 (S. typhi infected rats, 1.9 mg/kg IP daily for one week); 11.91 ± 1.04 area % with NFKB2 (S. typhi infected rats, 3.8 mg/kg IP daily for one week); 0.7513 ± 0.0671 area % with NFKB2 (uninfected rats, 1.9 mg/kg IP daily for one week); 0.4087 ± 0.08844 area % with NFKB2 (uninfected rats, 3.8 mg/kg IP daily for one week). Besides, the “renal and liver functions, oxidative stress and inflammatory markers (urea, creatinine, ALT, AST, GSH, MDA, TNF-α, IL-10)” value in the data set with S. typhi [3] (setting [5]) is “normalisation of urea, ALT, and AST”; with S. typhi [3] (setting [6]) it was “returning of urea, creatinine, ALT, and AST”.

Regarding “N'-((3a,7a-dihydro-1H-indol-3-yl)methylene)-3,4-dimethoxybenzohydrazide [Compound 4h]”, the “zones of inhibition (inhibitory activity)” value in the data set with P. aeruginosa, in the data set with S. typhi [4] and in the data set with S. aureus ATCC 6538 was “best activities” each time. This compound registered an MBC against Aciento sensitive of 96.87 µM. For the same compound, the “renal and liver functions, oxidative stress and inflammatory markers (urea, creatinine, ALT, AST, GSH, MDA, TNF-α, IL-10)” value is “significant improvement in all measured parameters” with S. typhi [3] (setting [5]); “returning of urea, creatinine, AST, and TNF-α to normal levels” with S. typhi [3] (setting [6]).

The record behind these values is article PMC9037180, “Ligand-based design and synthesis of N'-Benzylidene-3,4-dimethoxybenzohydrazide derivatives as potential antimicrobial agents; evaluation by in vitro, in vivo, and in silico approaches with SAR studies” (Journal of Enzyme Inhibition and Medicinal Chemistry, 2022).
